Among the test systems are NCI-H460 lung; HT29 colon; ACHN renal; OVCAR-3 ovarian; SNB-19 CNS; UACC-257 melanoma; K-562 leukemia; HL-60(TB) leukemia; UO-31 renal; HCC-2998 colon.
Holding throughout (assay): DTP human tumour cell line panel, 48 h

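Results reflect a 48-hour exposure of cells in 96-well plates to compound at five concentrations. GI50 marks 50% less growth. The concentration for full growth arrest is given as TGI.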

`COc1cc2c(c(Br)c1N)-c1cc(Br)c(N)cc1C2=O`: the GI50 in the assay with NCI-H460 lung is 3210 nM; with HT29 colon it was over 100000 nM; in the assay with ACHN renal it was over 100000 nM; in the assay with OVCAR-3 ovarian, over 100000 nM; in the assay on SNB-19 CNS, over 100 µM; in the assay on UACC-257 melanoma it was over 100 µM. Besides, the GI50 was over 100000 nM in the assay on K-562 leukemia, over 100000 nM in the assay on HL-60(TB) leukemia, over 100000 nM with UO-31 renal and 4970 nM with HCC-2998 colon. The total growth inhibition concentration (TGI) with NCI-H460 lung, in the assay with HT29 colon, with ACHN renal, in the assay on OVCAR-3 ovarian, with SNB-19 CNS and in the assay with UACC-257 melanoma was over 100 µM each time. Also, the TGI in the assay on K-562 leukemia, in the assay on HL-60(TB) leukemia, in the assay with UO-31 renal and in the assay with HCC-2998 colon was over 100 µM throughout.
Consider `COC1C2c3ccccc3C(C#N)(Cc3ccc4c(c32)OCO4)N1C(=O)c1ccccc1` (stereo not given), for which the total growth inhibition concentration (TGI) with NCI-H460 lung, in the assay with HT29 colon, in the assay on ACHN renal, in the assay with OVCAR-3 ovarian, with SNB-19 CNS and with UACC-257 melanoma was over 100 µM throughout. Moreover, the total growth inhibition concentration (TGI) in the assay on K-562 leukemia, in the assay with HL-60(TB) leukemia, in the assay with UO-31 renal and with HCC-2998 colon was over 100 µM throughout.
In the case of `COc1ccc(C2=NN(c3ccc(S(N)(=O)=O)cc3)C(c3ccc(Cl)cc3)C2)c(O)c1` (stereo not given), the GI50 is 2310 nM in the assay on NCI-H460 lung; 2830 nM with HT29 colon; 3580 nM with ACHN renal; 2600 nM with OVCAR-3 ovarian; 10.8 µM in the assay with SNB-19 CNS; 6.84 µM in the assay with UACC-257 melanoma. The GI50 with K-562 leukemia is 1800 nM; in the assay with HL-60(TB) leukemia it was 1860 nM; with UO-31 renal it was 1970 nM; in the assay on HCC-2998 colon it was 2620 nM. The TGI was 6.08 µM in the assay on NCI-H460 lung; 8.68 µM in the assay on HT29 colon; 50.6 µM with ACHN renal; 7.45 µM with OVCAR-3 ovarian; 65.1 µM in the assay with SNB-19 CNS; 42 µM in the assay on UACC-257 melanoma. Also, the TGI with K-562 leukemia is 4.09 µM; in the assay with HL-60(TB) leukemia it was 4.99 µM; in the assay with UO-31 renal, 13.5 µM; with HCC-2998 colon it was 5.37 µM.
Turning to `CCN1N=CSC12C(=O)N(c1ccccc1)C(=O)N2c1ccccc1` (stereo not given), the TGI in the assay on NCI-H460 lung, in the assay with HT29 colon, with ACHN renal, in the assay with OVCAR-3 ovarian, in the assay on SNB-19 CNS and in the assay on UACC-257 melanoma was over 100 µM in each case. The TGI with K-562 leukemia, in the assay with HL-60(TB) leukemia, with UO-31 renal and in the assay with HCC-2998 colon was over 100 µM each time.
With `CCOC(=O)C12CN(C34CC5CC(CC(C5)C3)C4)CC(C(=O)OCC)(C1=O)C(c1ccccc1)OC2c1ccccc1` (stereo not given), the TGI with NCI-H460 lung, in the assay with HT29 colon, in the assay on ACHN renal, in the assay with OVCAR-3 ovarian, in the assay with SNB-19 CNS and with UACC-257 melanoma was over 100 µM in each case. Moreover, the TGI with K-562 leukemia, with HL-60(TB) leukemia, with UO-31 renal and in the assay on HCC-2998 colon was over 100 µM in each case.
For `Cn1cccc1C1CC(=O)N(CCC[Se]C#N)C1=O` (stereo not given), the GI50 with NCI-H460 lung is 2050 nM; with HT29 colon, 2720 nM; in the assay on ACHN renal it was 2110 nM; in the assay with OVCAR-3 ovarian it was 1920 nM; in the assay with SNB-19 CNS, 1.62 µM; in the assay with UACC-257 melanoma it was 1.95 µM. For the same compound, the GI50 was 3200 nM in the assay with K-562 leukemia, 2110 nM with HL-60(TB) leukemia, 1570 nM in the assay with UO-31 renal and 2960 nM in the assay with HCC-2998 colon. In addition, the total growth inhibition concentration (TGI) came to 5.93 µM in the assay with NCI-H460 lung; 28.6 µM in the assay on HT29 colon; 4.4 µM in the assay with ACHN renal; 3.99 µM in the assay on OVCAR-3 ovarian; 3.08 µM in the assay with SNB-19 CNS; 4.73 µM in the assay on UACC-257 melanoma. The TGI is 29.9 µM in the assay on K-562 leukemia, 4.68 µM in the assay with HL-60(TB) leukemia, 3.29 µM with UO-31 renal and 10.1 µM in the assay on HCC-2998 colon.
Consider `Cn1c(=O)c2c(nc3n2C(CCl)CO3)n(C)c1=O` (stereo not given), for which the concentration for total growth inhibition (TGI) with NCI-H460 lung, in the assay with HT29 colon, in the assay on ACHN renal, with OVCAR-3 ovarian, in the assay with SNB-19 CNS and with UACC-257 melanoma was over 100 µM in each case. The total growth inhibition concentration (TGI) in the assay on K-562 leukemia, in the assay with HL-60(TB) leukemia, in the assay with UO-31 renal and with HCC-2998 colon was over 100 µM throughout.
In the case of `Cc1ccc2c(c1)/C(=N\N=C/c1cn(C(C)C)c3ccccc13)C(=O)N2`, the GI50 with NCI-H460 lung was 833 nM; in the assay on HT29 colon, 2820 nM; in the assay on ACHN renal, 2950 nM; with OVCAR-3 ovarian, 311 nM; in the assay with SNB-19 CNS it was 7.18 µM; in the assay with UACC-257 melanoma, 5.05 µM. Moreover, the GI50 in the assay with K-562 leukemia was 1960 nM; with HL-60(TB) leukemia it was 1950 nM; in the assay on UO-31 renal, 1980 nM; with HCC-2998 colon, 2420 nM. In addition, the TGI is 13.1 µM with NCI-H460 lung; over 100 µM with HT29 colon; over 100 µM in the assay on ACHN renal; 31.9 µM with OVCAR-3 ovarian; over 100 µM in the assay on SNB-19 CNS; over 100 µM in the assay with UACC-257 melanoma. In addition, the TGI in the assay with K-562 leukemia is over 100 µM; in the assay on HL-60(TB) leukemia, 6.17 µM; in the assay on UO-31 renal, over 100 µM; in the assay on HCC-2998 colon it was 14.9 µM.
For the compound `CC(=O)NNc1nc(C)c(C(/C=C/c2ccc3c(c2)OCO3)=N/NC(=O)c2ccncc2)s1`, the concentration for total growth inhibition (TGI) in the assay with NCI-H460 lung, in the assay with HT29 colon, in the assay on ACHN renal, in the assay on OVCAR-3 ovarian, in the assay on SNB-19 CNS and with UACC-257 melanoma was over 100 µM throughout. In addition, the TGI in the assay with K-562 leukemia, in the assay on HL-60(TB) leukemia, in the assay with UO-31 renal and in the assay with HCC-2998 colon was over 100 µM in each case.

As a reminder, the GI50 is the concentration that inhibits growth by half. In general, TGI refers to the concentration at which net growth stops.

(Values after PubChem BioAssay (NCI).)
